Patent US20050203063A1, “Proteasome pathway inhibitors and related methods” (priority 2003, published 2005)
Like-named read-outs stand apart in the source and are kept apart here. Where a SMILES comes first, the peptide text is derived from it. The star is where a group is joined. Cbz = O=C(OCc1ccccc1)*

Key:
[1] = tested on: Cdh1-stimulated cyc-luc proteolysis (APC/C); assay: cyc-luc turnover in interphase Xenopus extracts stimulated with recombinant Cdh1; type: biochemical
Procedure: (§1) FIG. 1. Functional classification of inhibitors. Compounds that scored in the initial screen were reacquired as dry powders and retested in Xenopus extracts in 4 assays at 200 μM concentration (32) as described (6). […] (A) Compounds and cyclin-luciferase were added to interphase extracts, which were then induced to enter mitosis by addition of non-degradable cyclin B. Percent inhibition of cyc-luc turnover by each compound is coded according to the grayscale shown at the bottom of the figure; specific values are available in Table 1. (B) Extracts were pre-treated with non-degradable cyclin B to allow entry into mitosis prior to addition of test compound and reporter protein. (C) Interphase extracts were treated by addition of recombinant Cdh1 to activate cyc-luc turnover. (D) Interphase extracts were treated with recombinant axin to induce turnover of β-catenin-luciferase.
(§2) The “Cmpd” column corresponds to the numbers used in FIG. 1; “Class” refers to the class of inhibitor described in FIG. 1 and the text. Columns A-D show percent inhibition in the four assays described in FIG. 1. (A) Interphase extracts (B) Mitotic extracts (C) Interphase extracts stimulated with Cdh1 (D) Degradation of a β-catenin reporter protein in interphase extracts stimulated with recombinant axin. […] “ID#” refers to the identification number of the inhibitor obtained from the NCI (prefaced by NSC) or Chembridge (prefaced by C).
(§3) Dry compounds were redissolved at 20 mM concentration in DMSO, or a 50:50 water:DMSO mixture in certain cases. These compounds were then diluted ten-fold in XB and mixed thoroughly. For the assay in FIG. 1A, chilled interphase extract was mixed with cyclin BΔ90 (10 μg/ml) and cyc-luc (0.1 μg/ml) in bulk and then 27 μl of extract was pipetted to each well of a chilled 384-well plate. Three microliters of each compound (diluted in XB) was then added to each well, and then compounds mixed thoroughly. Plates were warmed to room temperature. After 70 minutes, 5 μl aliquots were transferred to another plate, and then 30 μl of luciferin reagent was added to each well and luminescence measured. Percent inhibition was calculated as described above. The reported values represent the average of three independent measurments. For the assay in FIG. 1B, interphase extracts were treated with 10 μg/cyclin B 90 for 50 minutes at room temperature and then chilled on ice. Cyc-luc was then added, and then 27 μl of extract was pipetted to each well of a chilled 384-well plate. Three microliters of each compound (diluted in XB) was then added to each well, and then compounds mixed thoroughly. Plates were warmed to room temperature. After 60 minutes, 5 μl aliquots were transferred to another plate, and then 30 μl of luciferin reagent was added to each well and luminescence measured. For the assay in FIG. 1C, recombinant Cdh1 (0.1 μg/ml) and cyc-luc were added to chilled interphase extracts. Extracts were then pipetted and compounds added as above. Plates were warmed to room temperature and incubated for three hours, following which luminescence was measured as above. For the assay in FIG. 1D, chilled interphase extracts received recombinant axin and beta-catenin-luciferase reporter as described (8). Extracts were aliquoted to chilled plates and compounds distributed as described above. Plates were warmed to room temperature, incubated for three hours, and luminescence measured.

[2] = tested on: β-catenin-luciferase turnover (substrate of the SCFβ-TRCP ubiquitin ligase); assay: β-catenin-luciferase turnover in interphase Xenopus extracts stimulated with recombinant axin; type: biochemical
Procedure: as §1, §2, §3

[3] = tested on: cyclin-luciferase (cyc-luc) turnover, APC/C activation; assay: cyc-luc turnover in interphase Xenopus extracts induced to enter mitosis by non-degradable cyclin B; type: biochemical
Procedure: as §1, §2
Extracts were rapidly thawed and diluted to a final concentration of 75% in extract buffer (XB) just prior to assay (XB; 100 mM KCl, 0.1 mM CaCl2, 1 mM MgCl2, 10 mM potassium HEPES, pH 7.7, 50 mM sucrose). Extracts were kept on ice and supplemented with 1 mg/ml bovine ubiquitin (Sigma) unless otherwise stated. Cyc-luc expressed in reticulocyte lysate was diluted 1/200 for most assays. High-throughput screening utilized the bacterially expressed and purified cyclin-luc fusion protein, which was added to extracts at a final concentration of 0.1 μg/ml. To induce entrance into mitosis, cyclin BΔ90 protein was added to a final concentration of 10 μg/ml. For the dose response analysis, inhibitors were purchased from Calbiochem (San Diego, Calif.) and dissolved in DMSO as 10 mM stocks. Cyclin-luciferase and cyclin BΔ90 were mixed with interphase extract and placed on ice. Inhibitors were then added to extracts to yield a final DMSO concentration of 1%. 10 μl aliquots of extract were distributed into 384-well white Cliniplates (Labsystems), and cell cycle progression was initiated by warming the samples to room temperature. After 60 minutes, 30 μl of luciferin reagent (20 mM tricine pH 7.8, 470 μM D-Luciferin [Molecular Probes]), 270 μM Coenzyme A, 0.1 mM EDTA, 33 mM DTT, and 530 μM ATP) was added using a multidrop dispenser (Labsystems). Luminescence was measured on an Analyst plate reader (LJL Biosystems). The values for 3 replicates were averaged. For the dose response analysis, percent inhibition was calculated as 100*(T−M)/(I−M) where T equals the test value for the inhibitor, M equals the value in a mitotic extract lacking inhibitor, and I equals the value in an interphase extract. For certain experiments, methylated ubiquitin was added to interphase extracts at a concentration of 1 mg/ml in the presence or absence of added unmodified ubiquitin (1 mg/ml) used as competitor. Cyclin-luciferase and cyclin BΔ90 were then added. After 60 minutes, the reactions were stopped and analyzed as described above.
Dry compounds were redissolved at 20 mM concentration in DMSO, or a 50:50 water:DMSO mixture in certain cases. These compounds were then diluted ten-fold in XB and mixed thoroughly. For the assay in FIG. 1A, chilled interphase extract was mixed with cyclin BΔ90 (10 μg/ml) and cyc-luc (0.1 μg/ml) in bulk and then 27 μl of extract was pipetted to each well of a chilled 384-well plate.

[4] = tested on: cyclin-luciferase (cyc-luc) turnover, activated APC/C; assay: cyc-luc turnover in mitotic Xenopus extracts (pre-treated with non-degradable cyclin B); type: biochemical
Procedure: as §1, §2, §3

[5] = tested on: HEK-293 cells stably expressing GFP-AR; assay: Protac-induced GFP-AR degradation in microinjected HEK-293 cells; type: cell-based; conditions: microinjection, 100 nM
Procedure: The results are representative of experiments performed on 3 separate days.
The effect of ubistatin A on protein degradation within intact mammalian cells was also evaluated (FIG. 4). Since the negative charge of the molecule was predicted to preclude efficient entry into the cell, compound was introduced by microinjection.
HEK-293 cells stably transfected with a plasmid that expresses GFP-AR were microinjected with 0.2 pl (5-10% of cell volume) of a 200 mM KCl solution containing 10 μM Protac and 50 mg/ml rhodamine dextran (MW 10,000 Da).

[6] = 200 μM compound, negative values reflect stimulation of proteolysis
[7] = 200 μM compound, added to interphase extracts then induced to enter mitosis, average of three measurements
[8] = 200 μM compound, extracts in mitosis before addition of compound

Structure (SMILES) | percent inhibition of cyc-luc turnover, (C) Interphase extracts stimulated with Cdh1 [1, 6] [%] | percent inhibition, (D) Degradation of a β-catenin reporter protein in interphase extracts stimulated with recombinant axin ([2]; 200 μM compound) [%] | percent inhibition of cyc-luc turnover, (A) Interphase extracts [3, 7] [%] | percent inhibition of cyc-luc turnover, (B) Mitotic extracts [4, 8] [%] | further results
O[Si](c1ccccc1)(c1ccccc1)c1ccccc1.O[Si](c1ccccc1)(c1ccccc1)c1ccccc1.O[Si](c1ccccc1)(c1ccccc1)c1ccccc1.[O]=[V] [Compound 61] | −8 | 2 | 77 | 8 | 
O=C1c2ccccc2C2=NNC3=C(S(=O)(=O)O)C=CC1C23 (stereo not shown) [Compound 10] | −4 | 21 | 33 | 0 | 
CC(C)C[C@@H](C=O)NC(=O)[C@H](CC(C)C)NC(=O)[C@H](CC(C)C)NC(=O)OCc1ccccc1 [MG132, reference compound] (Cbz-Leu-Leu-Leu-aldehyde) |  |  |  |  | effect on loss of cyc-luc activity / activation of latent APC/C activity (in words) ([3]; assay validation, inhibitor added to interphase extract before mitotic entry): partially inhibited
CC(=O)Nc1ncnc2[nH]ncc12 [Compound 54] | −6 | 0 | 54 | 3 | 
O=c1[nH]cnc2c1ccc1[nH]ncc12 [Compound 67] | −8 | 3 | 53 | 3 | 
NC(=O)c1ncn(C2OC(CO)C(O)C2O)c1C(N)=O (stereo not shown) [Compound 82] | 0 | 0 | 100 | 0 | 
ON=c1[nH]cnc2[nH]cc(Br)c12 [Compound 40] | −6 | 3 | 42 | 0 | 
CC[C@H](C)[C@H](NC(=O)[C@H]([C@@H](C)CC)N(C)C(C)=O)C(=O)N[C@H](C(=O)N[C@@H](CC(C)C)C(=O)[C@@]1(C)CO1)[C@@H](C)O [epoxomicin] |  |  |  |  | block of Protac-X induced loss of GFP-AR [5]: completely blocked
O=C(NNC(=S)NC(=O)C12CC3CC(CC(C3)C1)C2)c1ccncc1 [Compound 13] | −9 | 0 | 75 | 0 | 
Nc1ncnc2c1c(Cl)cn2[C@@H]1O[C@H](CO)[C@@H](O)[C@H]1O [Compound 39] | −7 | 67 | 100 | 9 | 
O/N=C(/C=N/O)SCCSC(/C=N/O)=N/O [Compound 77] | −12 | 0 | 100 | 4 | 
Nc1ncnc(Nc2ccc(S(N)(=O)=O)cc2)n1 [Compound 25] | −6 | 0 | 66 | 3 | 
Nc1ncnc2c1ncn2C1OC2COP(=O)(O)OC2C1O (stereo not shown) [Compound 34] |  |  |  |  | percent inhibition of cyc-luc turnover, (C) Interphase extracts stimulated with Cdh1 ([1]; 200 µM): −8%; percent inhibition, (D) Degradation of a β-catenin reporter protein in interphase extracts stimulated with recombinant axin ([2]; 200 µM): 6%; percent inhibition of cyc-luc turnover, (A) Interphase extracts ([3]; 200 µM): 100%; percent inhibition of cyc-luc turnover, (B) Mitotic extracts ([4]; 200 µM): 0%
N#Cc1c(NN)n(C2OC(CO)C(O)C2O)c2ncnc(N)c12 (stereo not shown) [Compound 51] | 0 | 30 | 100 | 0 | 
CC[C@H](CO)Nc1nc(NCc2ccccc2)c2ncn(C(C)C)c2n1 [roscovitine, reference compound] |  |  |  |  | effect on loss of cyc-luc activity / activation of latent APC/C activity (in words) [3]: blocked; effect on cyc-luc proteolysis in mitotic extracts (in words) [4]: ineffective
O=c1[nH]c(O)nc2cc3[nH]ncc3cc12 [Compound 62] | −8 | 0 | 84 | 0 | 
Nc1nc2c(c(=O)[nH]1)c1c(N)ncnc1n2C1OC(CO)C(O)C1O (stereo not shown) [Compound 57] | 0 | 60 | 100 | 4 | 
O=S(=O)(O)c1ccc2c(/N=N/c3ccccc3)c(O)ccc2c1 [Compound 18] | −7 | 0 | 73 | 4 | 
